# Assay results: US5610174A, “Use of α1A -selective adrenoceptor agonists for the treatment of urinary incontinence” (priority 1995, dated 1997)
# Where two headings read alike, the source gives them in different places.
# Key:
# [1] = molecular target: T1, human α1B adrenoceptor (Homo sapiens, UniProt P35368); test: Radioligand binding ([3H]prazosin) at cloned human α1B
# T1 construct: The entire coding region of the α1B receptor (1563 bp); expressed in transfected cells
# T1 sequence (P35368 1-520): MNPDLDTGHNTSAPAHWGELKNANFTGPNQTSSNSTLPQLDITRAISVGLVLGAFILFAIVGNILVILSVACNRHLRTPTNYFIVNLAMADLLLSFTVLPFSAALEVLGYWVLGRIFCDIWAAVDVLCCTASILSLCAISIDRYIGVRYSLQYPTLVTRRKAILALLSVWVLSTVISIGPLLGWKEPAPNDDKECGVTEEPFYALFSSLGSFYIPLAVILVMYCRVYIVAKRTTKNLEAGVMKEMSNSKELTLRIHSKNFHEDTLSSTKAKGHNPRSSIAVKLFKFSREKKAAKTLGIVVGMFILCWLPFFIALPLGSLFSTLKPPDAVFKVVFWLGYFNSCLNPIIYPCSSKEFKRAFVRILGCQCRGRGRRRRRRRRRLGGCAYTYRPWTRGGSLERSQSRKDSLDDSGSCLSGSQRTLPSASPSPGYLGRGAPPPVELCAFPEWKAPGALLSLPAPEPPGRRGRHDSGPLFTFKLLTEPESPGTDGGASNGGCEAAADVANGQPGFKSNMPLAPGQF
# Procedure: (§1) These cell lines were prepared by transfecting the cloned cDNA or cloned genomic DNA or constructs containing both genomic DNA and cDNA encoding the human α-adrenoceptors as follows:
# The construct involved ligating the full-length containing EcoRI brainstem cDNA fragment from λ ZapII into the expression vector. Stable cell lines were obtained as described above.
# (§2) Transfected cells from culture flasks were scraped into 5 ml of 5 mM Tris-HCl, 5 mM EDTA, pH 7.5, and lysed by sonication. The cell lysates were centrifuged at 1000 rpm. for 5 min at 4° C., and the supernatant was centrifuged at 30,000 ×g for 20 min at 4° C. The pellet was suspended in 50 mM Tris-HCl , 1 mM MgCl2, and 0.1% ascorbic acid at pH 7.5. […] The reaction was stopped by filtration through GF/B filters using a cell harvester.
# [2] = molecular target: T2, human α2C adrenoceptor (Homo sapiens, UniProt P18825); test: Radioligand binding ([3H]rauwolscine) at cloned human α2C
# T2 construct: expressed in transfected cells; host or cells: LM(tk-)
# T2 sequence (P18825 1-462): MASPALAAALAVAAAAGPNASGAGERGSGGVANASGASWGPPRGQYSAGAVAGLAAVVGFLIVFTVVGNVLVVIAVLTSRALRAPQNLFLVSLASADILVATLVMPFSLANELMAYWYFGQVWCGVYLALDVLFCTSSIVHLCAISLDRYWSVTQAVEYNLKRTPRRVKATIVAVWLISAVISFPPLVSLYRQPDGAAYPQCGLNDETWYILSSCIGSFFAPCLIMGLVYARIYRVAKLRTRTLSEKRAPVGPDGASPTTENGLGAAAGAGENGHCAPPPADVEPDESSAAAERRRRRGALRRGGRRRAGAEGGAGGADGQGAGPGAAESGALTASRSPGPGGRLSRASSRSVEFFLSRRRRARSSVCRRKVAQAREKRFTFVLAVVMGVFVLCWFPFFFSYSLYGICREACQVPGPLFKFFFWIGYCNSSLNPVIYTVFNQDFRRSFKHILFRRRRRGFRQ
# Procedure: (§3) To determine the affinity of compounds at the α2 receptors, LM(tk-) cell lines stably transfected with the genes encoding the α2A, α2B, and α2C receptors were used. Cell lysates were prepared as described above (see Radioligand Binding Assays), and suspended in 25 mM glycylglycine buffer (pH 7.6 at room temperature). Equilibrium competition binding assays were performed using [^3 H] rauwolscine (0.5 nM), and nonspecific binding was determined by incubation with 10 μM phentolamine. The bound radioligand was separated by filtration through GF/B filters using a cell harvester.
# [3] = molecular target: T3, human α1A adrenoceptor (Homo sapiens, UniProt P25100); test: biochemical; type: binding
# T3 sequence (P25100 1-572): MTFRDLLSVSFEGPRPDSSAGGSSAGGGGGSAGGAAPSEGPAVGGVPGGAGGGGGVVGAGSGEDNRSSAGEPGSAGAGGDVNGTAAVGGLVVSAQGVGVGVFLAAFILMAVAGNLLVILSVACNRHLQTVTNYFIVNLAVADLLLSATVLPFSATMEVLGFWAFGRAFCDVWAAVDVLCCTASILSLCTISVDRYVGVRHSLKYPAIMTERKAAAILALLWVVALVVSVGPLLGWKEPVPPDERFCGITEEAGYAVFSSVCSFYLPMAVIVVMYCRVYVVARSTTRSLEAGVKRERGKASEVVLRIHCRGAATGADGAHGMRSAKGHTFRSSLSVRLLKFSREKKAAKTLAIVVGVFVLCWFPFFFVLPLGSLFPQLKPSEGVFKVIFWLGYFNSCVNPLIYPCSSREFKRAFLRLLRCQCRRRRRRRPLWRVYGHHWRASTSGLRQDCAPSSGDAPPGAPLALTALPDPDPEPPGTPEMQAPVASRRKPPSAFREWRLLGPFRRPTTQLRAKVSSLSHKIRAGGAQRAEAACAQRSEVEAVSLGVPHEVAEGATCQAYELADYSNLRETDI
# Procedure: as §1
# The cells were grown, in a controlled environment (37° C., 5% CO2), as monolayers in Dulbecco's modified Eagle's Medium (GIBCO, Grand Island, N.Y.) containing 25 mM glucose and supplemented with 10% bovine calf serum, 100 units/ml penicillin g, and 100 μg/ml streptomycin sulfate.
# as §2
# [4] = molecular target: T4, human α2A adrenoceptor (Homo sapiens, UniProt P08913); test: Radioligand binding ([3H]rauwolscine) at cloned human α2A
# T4 construct: expressed in transfected cells; host or cells: LM(tk-)
# T4 sequence (P08913 1-465): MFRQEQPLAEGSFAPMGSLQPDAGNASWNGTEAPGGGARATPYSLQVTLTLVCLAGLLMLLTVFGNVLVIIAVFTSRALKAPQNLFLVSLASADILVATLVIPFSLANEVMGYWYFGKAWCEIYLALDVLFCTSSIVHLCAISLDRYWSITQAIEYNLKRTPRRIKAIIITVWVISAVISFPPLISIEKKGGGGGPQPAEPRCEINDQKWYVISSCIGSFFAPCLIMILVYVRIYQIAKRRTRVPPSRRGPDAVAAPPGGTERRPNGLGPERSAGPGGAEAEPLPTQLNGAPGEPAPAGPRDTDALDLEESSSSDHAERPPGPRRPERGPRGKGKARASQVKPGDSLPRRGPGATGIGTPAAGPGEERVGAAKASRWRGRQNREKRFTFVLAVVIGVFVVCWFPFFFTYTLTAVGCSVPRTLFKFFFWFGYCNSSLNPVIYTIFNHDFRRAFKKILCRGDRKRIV
# Procedure: as §3
# [5] = Table 3, agonists, read-out: pKi α2C (converted)
# [6] = Table 3, agonists, read-out: pKi α1A (converted)
# [7] = Table 3, agonists, read-out: pKi α2A (converted)
# [8] = Table 2, antagonists, versus 3H-prazosin
SMILES,Ki [1],Ki [2],"Ki [4, 7]",Ki [3],other results
"CS(=O)(=O)Nc1c(O)ccc2c1CCCC2C1=NCCN1 (racemic) [Compound A-61603, (±)-N-[5-(4,5-Dihydro-1H-imidazol-2-yl)-2-hydroxy-5,6,7,8-tetra-hydronaphthalen-1-yl]methanesulfonamide]",15.8 µM,–,–,–,"Ki [2, 5]: 0.631 µM; Ki [3, 6]: 12.6 µM"
"COc1ccc(OC)c(C(O)CN)c1 (racemic) [ST-1059, (±)-2-Amino-1-(2, 5 dimethoxyphenyl) ethanol]",12.6 µM,3.98 µM,2 µM,7.94 µM,–
"COc1ccc(SC)c2c1C[C@@H]1[C@@H](C2)OCCN1C (relative stereo) [SDZ NVI-085, (±)-trans-4-Methyl-6-methoxy-9-thiomethoxy-3,4,4a, 5,10,10a-hexahydro-2H-naphtho[2,3-b][1,4]oxazine]",–,–,–,–,"Ki ([1]; Table 3, agonists, read-out: pKi α1B (converted)): 12.6 µM; Ki [2, 5]: 0.794 µM; Ki [4]: 0.0501 µM; Ki [3, 6]: 2 µM"
CN[C@@H](C)[C@H](O)c1ccccc1 [(-)-ephedrine],100 µM,7.94 µM,0.794 µM,50.1 µM,–
C[C@H](N)[C@H](O)c1ccccc1 [(-)-norephedrine],50.1 µM,3.16 µM,0.501 µM,25.1 µM,–
CNC[C@H](O)c1cccc(O)c1 [(-)-phenylephrine],–,–,–,3.98 µM,–
"COc1cc2c(cc1OC)CN(c1cc(N)c3cc(OC)c(OC)cc3n1)CC2 [Abanoquil, 2-(6,7-Dimethoxy-3,4-dihydro-1H-isoquinolin-2-yl)-6,7-dimethoxyquinolin-4-ylamine hemifumarate hydrate]",–,–,–,–,"pKI (antagonist affinity, 3H-prazosin binding) hα1B [1, 8]: 10.1; pKI (antagonist affinity, 3H-prazosin binding) hα1A [3, 8]: 10.4"
COc1ccccc1N1CCN(CCCNc2c(C)c(=O)n(C)c(=O)n2C)CC1 [Compound 5-MU],–,–,–,–,"Ki ([1]; Table 2, antagonists, versus 3H-prazosin, read-out: pKI (antagonist affinity, 3H-prazosin binding) hα1B (converted)): 0.126 µM; Ki ([3]; Table 2, antagonists, versus 3H-prazosin, read-out: pKI (antagonist affinity, 3H-prazosin binding) hα1A (converted)): 0.0158 µM"
CNCCc1ccc(O)c(NS(C)(=O)=O)c1 [SK&F 102652],–,–,–,–,"pKi α2A ([4]; Table 3, agonists): 6.4"
